Holding throughout (format): cell-based
One test addresses T1, ORAI1 (CRAC channel) (Homo sapiens, UniProt Q96D31).
T1 construct: human ORAI1 (hORAI1) co-transfected with hSTIM1 in HEK293T cells; with STIM1
In words: whole-cell patch clamp of ICRAC in transfected HEK293T cells. On the technique in general: In patch-clamp work, channel activity is measured electrically.

The target of the next test is T2, KV1.3 (Homo sapiens, UniProt P22001).
T2 construct: gene KCNA3; KV1.3 current in Jurkat T cells
In words: whole-cell patch clamp of IKV1.[…] in Jurkat T cells.

The target of another test is T3, KCa3.1 (Homo sapiens, UniProt O15554).
T3 construct: gene KCNN4
In words: whole-cell patch clamp of IKCa3.[…] in stable HEK293T cells. As to conditions: HEK-293T.

T3 sequence (O15554 whole entry): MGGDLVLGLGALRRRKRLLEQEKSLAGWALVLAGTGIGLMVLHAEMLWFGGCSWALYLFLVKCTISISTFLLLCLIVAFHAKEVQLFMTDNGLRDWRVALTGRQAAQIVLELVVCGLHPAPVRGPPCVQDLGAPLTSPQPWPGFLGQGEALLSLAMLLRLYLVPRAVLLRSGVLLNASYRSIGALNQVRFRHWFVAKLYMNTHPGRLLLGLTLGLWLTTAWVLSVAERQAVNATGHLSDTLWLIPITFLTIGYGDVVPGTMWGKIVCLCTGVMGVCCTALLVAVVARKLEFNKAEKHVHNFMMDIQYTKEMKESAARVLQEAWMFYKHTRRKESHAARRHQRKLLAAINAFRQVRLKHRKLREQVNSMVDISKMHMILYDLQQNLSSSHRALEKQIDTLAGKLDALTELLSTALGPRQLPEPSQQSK
T1 sequence (Q96D31 whole entry): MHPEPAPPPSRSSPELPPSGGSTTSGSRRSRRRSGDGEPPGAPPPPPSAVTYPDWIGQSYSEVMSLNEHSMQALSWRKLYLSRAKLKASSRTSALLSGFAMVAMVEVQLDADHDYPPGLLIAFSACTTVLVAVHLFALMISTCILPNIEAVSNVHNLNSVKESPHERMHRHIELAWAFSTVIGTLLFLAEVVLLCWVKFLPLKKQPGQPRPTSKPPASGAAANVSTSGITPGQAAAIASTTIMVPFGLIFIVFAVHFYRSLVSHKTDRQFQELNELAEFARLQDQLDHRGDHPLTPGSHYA
T1 sequence (Q13586 23-685, further chain): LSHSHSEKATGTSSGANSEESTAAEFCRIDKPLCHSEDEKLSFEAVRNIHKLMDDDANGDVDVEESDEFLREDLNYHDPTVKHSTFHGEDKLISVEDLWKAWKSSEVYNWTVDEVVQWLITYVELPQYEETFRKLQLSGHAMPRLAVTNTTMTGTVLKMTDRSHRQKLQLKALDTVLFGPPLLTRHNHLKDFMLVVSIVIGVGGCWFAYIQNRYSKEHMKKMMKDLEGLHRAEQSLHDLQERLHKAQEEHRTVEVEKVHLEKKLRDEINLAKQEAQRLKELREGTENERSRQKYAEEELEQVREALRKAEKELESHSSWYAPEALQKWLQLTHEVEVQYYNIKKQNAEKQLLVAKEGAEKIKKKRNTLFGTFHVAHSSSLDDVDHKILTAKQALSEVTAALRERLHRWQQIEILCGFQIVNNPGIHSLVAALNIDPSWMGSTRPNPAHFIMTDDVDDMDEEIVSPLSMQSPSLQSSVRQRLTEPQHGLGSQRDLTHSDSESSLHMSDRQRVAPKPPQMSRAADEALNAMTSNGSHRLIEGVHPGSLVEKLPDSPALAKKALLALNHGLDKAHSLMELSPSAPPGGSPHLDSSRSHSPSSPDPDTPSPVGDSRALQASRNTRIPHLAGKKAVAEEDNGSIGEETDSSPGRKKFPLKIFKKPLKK
T2 sequence (P22001 whole entry): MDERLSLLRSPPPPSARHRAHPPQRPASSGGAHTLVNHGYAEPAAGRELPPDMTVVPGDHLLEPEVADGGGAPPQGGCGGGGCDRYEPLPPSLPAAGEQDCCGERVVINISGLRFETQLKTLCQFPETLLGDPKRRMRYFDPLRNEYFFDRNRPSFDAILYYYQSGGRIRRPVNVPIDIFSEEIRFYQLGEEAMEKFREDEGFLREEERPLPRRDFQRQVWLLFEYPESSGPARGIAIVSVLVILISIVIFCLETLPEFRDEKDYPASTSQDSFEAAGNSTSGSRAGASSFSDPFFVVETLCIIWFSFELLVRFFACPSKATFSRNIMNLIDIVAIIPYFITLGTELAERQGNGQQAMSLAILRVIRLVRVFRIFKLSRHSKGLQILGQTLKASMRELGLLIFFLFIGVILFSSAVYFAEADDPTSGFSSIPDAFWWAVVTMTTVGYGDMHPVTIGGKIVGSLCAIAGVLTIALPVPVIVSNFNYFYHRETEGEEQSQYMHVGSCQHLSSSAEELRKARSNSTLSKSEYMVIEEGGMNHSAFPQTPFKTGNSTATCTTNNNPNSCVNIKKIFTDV

A word on the IC50: it is the concentration that inhibits the measured activity by half. A higher IC50 goes with weaker potency in that assay. The term inhibition denotes the share of the control response that was lost under treatment. A high value points to a strong effect. Regarding `C=C(C)[C@@H]1CCC2=CC(=O)C[C@@H](C)[C@]2(C)C1` [nootkatone], the values for the half-inhibitory concentration (IC50) at ORAI1 (CRAC channel) and against KV1.3 were roughly 12.6 µM and 10.8 µM, respectively. The compound also displayed an inhibition at 100 µM on KCa3.1 of roughly 20%.

Source of the values: PMC11121628, “Regulation of T Lymphocyte Functions through Calcium Signaling Modulation by Nootkatone” (International Journal of Molecular Sciences, 2024).
